Source: patent publication US9096591B2, “Tetracyclic compounds” (Medivation Technologies, Inc., priority 2007, dated 2015)

Experiments:
Settings in all cases: percent inhibition of specific binding
[1] = molecular target: T1, human recombinant adrenergic α1D receptor (Homo sapiens, UniProt P25100); assay: Adrenergic α1D radioligand binding ([3H]Prozosin); parameters: Inhibition of ligand binding, Adren. alpha1D: concentration or dose not given beside the values
T1 construct: expressed in transfected cells; host or cells: HEK-293 cells
T1 sequence (P25100 1-572): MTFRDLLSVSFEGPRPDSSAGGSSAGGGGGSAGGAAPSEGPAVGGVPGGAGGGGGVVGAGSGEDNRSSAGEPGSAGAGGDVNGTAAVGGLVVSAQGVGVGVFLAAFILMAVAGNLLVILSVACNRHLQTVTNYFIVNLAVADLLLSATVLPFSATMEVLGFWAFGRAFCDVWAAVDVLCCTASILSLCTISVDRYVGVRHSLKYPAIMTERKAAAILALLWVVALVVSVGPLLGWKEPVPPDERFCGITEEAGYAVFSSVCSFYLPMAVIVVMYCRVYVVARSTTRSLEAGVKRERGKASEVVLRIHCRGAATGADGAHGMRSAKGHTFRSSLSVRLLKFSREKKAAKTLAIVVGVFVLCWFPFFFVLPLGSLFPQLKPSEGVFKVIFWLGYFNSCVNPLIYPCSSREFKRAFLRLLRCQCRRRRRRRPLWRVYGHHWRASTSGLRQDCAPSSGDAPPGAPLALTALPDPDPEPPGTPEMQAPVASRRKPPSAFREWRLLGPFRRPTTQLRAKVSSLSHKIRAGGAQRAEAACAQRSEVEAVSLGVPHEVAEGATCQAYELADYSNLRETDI
Experimental: Compounds of invention were incubated with 0.6 nM [^3H]Prozosin for 60 minutes at 25° C. Non-specific binding was estimated in the presence of 10 μM phentolamine. Receptor proteins were filtered and washed, the filters were then counted to determine [^3H]Prozosin specifically bound. […] Biochemical assay results are presented as the percent inhibition of specific binding in Table 6.

[2] = molecular target: T2, human recombinant serotonin (5-Hydroxytryptamine) 5-HT2A receptor (Homo sapiens, UniProt P28223); assay: Serotonin 5-HT2A radioligand binding ([3H]Ketanserin)
T2 construct: expressed in transfected cells; host or cells: CHO-K1 cells
T2 sequence (P28223 whole entry): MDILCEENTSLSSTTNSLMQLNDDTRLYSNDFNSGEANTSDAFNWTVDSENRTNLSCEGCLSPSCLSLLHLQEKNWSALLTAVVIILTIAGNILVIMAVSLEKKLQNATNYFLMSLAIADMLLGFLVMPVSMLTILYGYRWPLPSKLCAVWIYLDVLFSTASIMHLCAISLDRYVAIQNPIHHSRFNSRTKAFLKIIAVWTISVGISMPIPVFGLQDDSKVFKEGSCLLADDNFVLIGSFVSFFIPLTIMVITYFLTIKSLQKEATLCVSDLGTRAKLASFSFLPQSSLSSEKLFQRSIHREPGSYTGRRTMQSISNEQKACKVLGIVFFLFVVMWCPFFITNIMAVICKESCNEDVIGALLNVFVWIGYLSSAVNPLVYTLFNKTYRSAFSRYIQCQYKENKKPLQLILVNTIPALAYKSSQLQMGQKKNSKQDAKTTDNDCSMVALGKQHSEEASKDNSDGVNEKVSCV
Experimental: (§1) Compounds of the invention were incubated with 0.5 nM [^3H]Ketanserin for 60 minutes at 25° C. Non-specific binding was estimated in the presence of 1 μM Mianserin. Receptor proteins were filtered and washed, the filters were then counted to determine [^3H]Ketanserin specifically bound. […] Biochemical assay results are presented as the percent inhibition of specific binding in Table 6.

[3] = molecular target: T3, human recombinant serotonin (5-Hydroxytryptamine) 5-HT2C receptor (Homo sapiens, UniProt P28335); assay: Serotonin 5-HT2C radioligand binding ([3H]Mesulergine); parameters: Inhibition of ligand binding, Ser. 5-HT2C: concentration or dose not given beside the values
T3 construct: expressed in transfected cells; host or cells: CHO-K1 cells
T3 sequence (P28335 33-458): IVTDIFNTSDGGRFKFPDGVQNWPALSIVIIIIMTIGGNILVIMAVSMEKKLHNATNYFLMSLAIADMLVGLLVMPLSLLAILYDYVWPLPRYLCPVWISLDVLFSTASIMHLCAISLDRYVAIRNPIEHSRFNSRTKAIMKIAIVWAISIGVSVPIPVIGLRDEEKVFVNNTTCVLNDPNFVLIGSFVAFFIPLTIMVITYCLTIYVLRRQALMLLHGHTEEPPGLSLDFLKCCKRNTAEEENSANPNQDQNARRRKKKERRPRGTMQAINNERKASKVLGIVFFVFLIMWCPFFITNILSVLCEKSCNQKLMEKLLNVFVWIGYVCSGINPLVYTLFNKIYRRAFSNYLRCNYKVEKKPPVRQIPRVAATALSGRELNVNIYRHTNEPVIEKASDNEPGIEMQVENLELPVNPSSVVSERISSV
Experimental: as §1, with “1” for “0.5”, “[^3H]Mesulergine” for “[^3H]Ketanserin”

[4] = molecular target: T4, Serotonin (5-Hydroxytryptamine) 5-HT7 (Homo sapiens, UniProt P34969); assay: Serotonin 5-HT7 radioligand binding ([3H]LSD); parameters: Inhibition of ligand binding, Ser. 5-HT7: concentration or dose not given beside the values
T4 construct: expressed in transfected cells; host or cells: CHO cells
T4 sequence (P34969 whole entry): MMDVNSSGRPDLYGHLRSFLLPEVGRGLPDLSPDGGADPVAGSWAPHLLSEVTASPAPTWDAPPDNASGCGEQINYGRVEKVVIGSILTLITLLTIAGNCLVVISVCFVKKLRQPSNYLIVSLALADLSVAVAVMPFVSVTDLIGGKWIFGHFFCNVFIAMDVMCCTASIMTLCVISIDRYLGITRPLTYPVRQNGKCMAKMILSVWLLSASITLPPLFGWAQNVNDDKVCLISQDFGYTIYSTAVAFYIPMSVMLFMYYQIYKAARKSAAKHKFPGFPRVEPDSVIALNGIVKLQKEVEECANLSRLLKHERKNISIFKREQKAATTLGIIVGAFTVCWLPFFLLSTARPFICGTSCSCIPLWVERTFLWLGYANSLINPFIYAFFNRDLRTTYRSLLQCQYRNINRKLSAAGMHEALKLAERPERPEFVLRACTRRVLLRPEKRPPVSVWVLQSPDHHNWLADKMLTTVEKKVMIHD
Experimental: Lysergic acid diethylamide (LSD) for 2 hours at 25° C. […] Receptor proteins were filtered and washed, the filters were then counted to determine [^3H]LSD specifically bound. […] Biochemical assay results are presented as the percent inhibition of specific binding in Table 6.

SMILES	Inhibition of ligand binding, Adren. alpha1D [1] [%]	Inhibition of ligand binding, Ser. 5-HT2A [2] [%]	Inhibition of ligand binding, Ser. 5-HT2C [3] [%]	Inhibition of ligand binding, Ser. 5-HT7 [4] [%]
CCN1CCc2c(c3ccccc3n2CCc2ccc(C)cc2)C1 [Compound 3, 2-ethyl-2,3,4,5-tetrahydro-5-(4-methylphenethyl)-1H-pyrido[4,3-b]indole]	48	98	82	81
CCN1CCc2c(c3ccccc3n2CCc2ccccc2)C1 [Compound 4, 2-ethyl-2,3,4,5-tetrahydro-5-phenethyl-1H-pyrido[4,3-b]indole]	56	102	94	88
CCN1CCc2c(c3ccccc3n2CCc2ccncc2)C1 [Compound 5]	21	55	9	37
CCN1CCc2c(c3ccccc3n2CCc2ccccn2)C1 [Compound 6]	6	74	34	39
CN1CCc2c(c3ccccc3n2CCc2ccncc2)C1 [Compound 10, 2,3,4,5-tetrahydro-2-methyl-5-(2-(pyridin-4-yl)ethyl)-1H-pyrido[4,3-b]indole]	19	69	53	73
CCN1CCc2c(c3ccccc3n2Cc2ccccc2)C1 [Compound 16, 5-benzyl-2-ethyl-2,3,4,5-tetrahydro-1H-pyrido[4,3-b]indole]	12	14	5	14
Cc1ccc(Cn2c3c(c4ccccc42)CN(C)CC3)cn1 [Compound 17, 2,3,4,5-tetrahydro-2-methyl-5-((6-methylpyridin-3-yl)methyl)-1H-pyrido[4,3-b]indole]	−7	−7	8	7
CCN1CCc2c(c3cc(C)ccc3n2CCc2ccccn2)C1 [Compound 23, 2-ethyl-2,3,4,5-tetrahydro-8-methyl-5-(2-(pyridin-2-yl)ethyl)-1H-pyrido[4,3-b]indole]	61	78	53	94
CCN1CCc2c(c3cc(C)ccc3n2CCc2ccc(C)nc2)C1 [Compound 31, 2-ethyl-2,3,4,5-tetrahydro-8-methyl-5-(2-(6-methylpyridin-3-yl)ethyl)-1H-pyrido[4,3-b]indole]	70	65	39	85
CN1CCc2c(c3cc(I)ccc3n2CCc2ccccc2F)C1 [Compound 89, 5-(2-fluorophenethyl)-2,3,4,5-tetrahydro-8-iodo-2-methyl-1H-pyrido[4,3-b]indole]	82	90	97	100
Cc1ccc2c(c1)c1c(n2Cc2ccccc2)CCN(C)C1 [Compound 137, 5-benzyl-2,3,4,5-tetrahydro-2,8-dimethyl-1H-pyrido[4,3-b]indole]	12	−2	10	15
CCN1CCc2c(c3cc(C)ccc3n2Cc2ccc(C)nc2)C1 [Compound 138, 2-ethyl-2,3,4,5-tetrahydro-8-methyl-5-((6-methylpyridin-3-yl)methyl)-1H-pyrido[4,3-b]indole]	33	14	5	23
